Experimental data reported in paper PMC6271716, “Design, Synthesis and SAR Studies of NAD Analogues as Potent Inhibitors towards CD38 NADase” (Molecules, 2014).

Biological target: T1, CD38 NADase (Homo sapiens, UniProt P28907, N100D/N164D/N209D/N219D)
T1 construct: pPICZαA carrying the C-terminus of CD38 (AA46-300, with the four glycosylation sites mutated); made in house; host or cells: Pichia pastoris X33 (pPICZαA vector)
T1 sequence (P28907 46-300 N100D/N164D/N209D/N219D): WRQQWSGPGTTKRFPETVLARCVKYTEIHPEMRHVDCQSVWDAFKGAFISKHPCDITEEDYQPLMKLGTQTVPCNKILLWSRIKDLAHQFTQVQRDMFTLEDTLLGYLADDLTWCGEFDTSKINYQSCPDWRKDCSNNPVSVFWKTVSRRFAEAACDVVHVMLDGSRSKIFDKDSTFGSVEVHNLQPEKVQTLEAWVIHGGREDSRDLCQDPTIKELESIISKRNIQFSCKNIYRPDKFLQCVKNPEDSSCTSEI
Assay: Enzyme activity assay: inhibition of the NAD-glycohydrolase (NADase) activity of recombinant CD38 (NAD cycling assay)
Format: biochemical
Details: for IC50: read-out: IC50, inhibitory activities of CD38 NADase
Description: Enzyme inhibition assays. The inhibitory activities to CD38 NADase of NAD analogues were evaluated by the method reported before. In this method, the inhibitions of NADase activities were calculated from the decrease of the NAD content.
Recombinant CD38, produced with a yeast expression system (Invitrogen, Carlsbad, CA, USA) was used to prepare the recombinant CD38 as reported previously. Briefly, pPICZαA carrying the C-terminus of CD38 (AA46-300, with the four glycosylation sites mutated, N100D, N164D, N209D and N219D) was transformed Pichia pastoris yeast, X33. The recombinant CD38 was induced by methanol and purified by phenylsepharose chromatography and cation exchange chromatography (SP column, GE Healthcare, Little Chalfont, UK). All the chemicals used in the enzymatic assays were purchased from Sigma (Santa Clara, CA, USA).
To study the inhibition of the NAD-glycohydrolase (NADase) activity of CD38 by the compounds, an enzymatic assay was performed. Briefly, different concentrations of the compound were mixed with recombinant CD38 (0.3 ng) and bovine serum albumin (1 µg) in a 16 µL-reaction mixture, then incubated in the dark for 2 hours at room temperature. NAD was added to the mixture to a final concentration of 2.5 µM to start the reaction. Aliquots (4 µL) of the reaction mixtures were withdrawn at 0, 4, 8 and 12 min, and the reaction was stopped by adding 4 µL of 0.6 M HCl, followed by neutralization with 8 µL of 0.5 M phosphate buffer, pH 8. The subsequent cycling reaction was conducted in 96-well plate with 16 µL of the sample mixed with 100 µL of the reagent containing 2% ethanol, 100 µg/mL alcohol dehydrogenase, 20 µM resazurin, 11 µg/mL diaphorase, 10 µM flavin mononucleotide and 100 mM sodium phosphate, pH 7. The cycling reaction was allowed to proceed for 10 min and the rate of fluorescence increase of resorufin (with excitation at 544 nm and emission at 590 nm) was measured using the Infinite M200 fluorescence plate reader (TECAN, Grödig, Austria). The relative NAD content was measured from the slope of fluorescence increase and the NAD-glycohydrolase activity was calculated from the decrease of NAD content at 0, 4, 8 and 12 min after the reaction started. As a control, each compound was directly added to the cycling reaction system with corresponding concentration to evaluate the potential interference to the cycling assay itself. IC50 values of inhibitors were calculated by the GraphPad Prism 5 software (GraphPad Software, Inc., La Jolla, CA, USA).

[1] = recombinant CD38 0.3 ng, 2 h preincubation at room temperature, NAD 2.5 µM

SMILES | IC50 [1] [µM] | IC50, inhibitory activities of CD38 NADase [1] | inhibition of CD38 NADase, in words (recombinant CD38, NAD 2.5 µM)
NC(=O)c1ccc[n+]([C@@H]2O[C@H](COP(=O)(O)CP(=O)(O)OC[C@H]3O[C@@H]([n+]4cccc(C(N)=O)c4)[C@@H](F)[C@@H]3O)[C@@H](O)[C@@H]2F)c1 [Compound 21, Bis(2′-deoxy-2′-fluoro-β-nicotinamide-arabinosyl)-methylenediphosphonate] | 7.98 | – | –
C[C@@]1(F)[C@H](O)[C@@H](COP(=O)(O)CP(=O)(O)OC[C@H]2O[C@@H]([n+]3cccc(C(N)=O)c3)[C@](C)(F)[C@@H]2O)O[C@H]1[n+]1cccc(C(N)=O)c1 [Compound 22, Bis(2′-deoxy-2′-fluoro-2′-methyl-β-nicotinamide)-methylenediphosphonate] | – | n.s. | –
COc1ncnc2c1ncn2C1OC(COP(=O)(O)OP(=O)([O-])OCC2OC([n+]3cccc(C(N)=O)c3)C(F)C2O)C(O)C1O (stereo not drawn) [Compound 19, 2′-Deoxy-2′-fluoro-arabinosyl-β-nicotinamide 6-O-methyl-hypoxanthine dinucleotide] | 0.133 | – | –
NC(=O)c1ccc[n+](C2OC(COP(=O)([O-])OP(=O)(O)OCC3OC(n4cnc5c(=O)[nH]c(N)nc54)C(O)C3O)C(O)C2F)c1 (stereo not drawn) [Compound 13, 2′-Deoxy-2′-fluoro-arabinosyl-β-nicotinamide guanine dinucleotide] | 0.0893 | – | –
NC(=O)c1ccc[n+]([C@@H]2O[C@H](COP(=O)(O)OP(=O)(O)OC[C@H]3O[C@@H]([n+]4cccc(C(N)=O)c4)[C@@H](F)[C@@H]3O)[C@@H](O)[C@@H]2F)c1 [Compound 20, Bis(2′-deoxy-2′-fluoro-β-nicotinamide-arabinosyl) pyrophophate] | 0.575 | – | –
NC(=O)c1ccc[n+](C2OC(COP(=O)([O-])OP(=O)(O)OCC3OC(n4cnc5c(=O)[nH]cnc54)C(O)C3O)C(O)C2F)c1 (stereo not drawn) [Compound 12, 2′-Deoxy-2′-fluoro-arabinosyl-β-nicotinamide hypoxanthine dinucleotide] | 0.109 | – | –
NC(=O)c1ccc[n+]([C@@H]2O[C@H](COP(=O)(O)O)[C@@H](O)[C@@H]2F)c1 [Compound 8, 2′-deoxy-2′-fluoroarabinosyl-β-nicotinamide mononucleotide, reference compound] | 0.297 | – | –
NC(=O)c1ccc[n+](C2OC(CSP(=O)(O)OP(=O)([O-])OCC3OC(n4cnc5c(N)ncnc54)C(O)C3O)C(O)C2F)c1 (stereo not drawn) [Compound 10, 2′-Deoxy-2′-fluoro-5′-thio-phosphate-arabinofuranoside-β-nicotinamide adenine dinucleotide] | 0.341 | – | –
CC1(F)C(O)C(COP(=O)([O-])OP(=O)(O)OCC2OC(n3cnc4c(N)ncnc43)C(O)C2O)OC1[n+]1cccc(C(N)=O)c1 (stereo not drawn) [Compound 7, 2′-Deoxy-2′-fluoro-2′-methyl-β-nicotinamide adenine dinucleotide] | 1810 | – | weak inhibition
NC(=O)c1ccc[n+]([C@@H]2O[C@H](COP(=O)([O-])OP(=O)(O)OC[C@H]3O[C@@H](n4cnc5c(N)ncnc54)[C@H](O)[C@@H]3O)[C@@H](O)[C@@H]2F)c1 [Compound 23, 2′-deoxy-2′-fluoroarabinosyl-β-nicotinamide adenine dinucleotide, reference compound] | 0.0611 | – | –
NC(=O)c1ccc[n+](C2OC(COP(=O)([O-])OP(=O)(O)OP(=O)(O)OCC3OC(n4cnc5c(N)ncnc54)C(O)C3O)C(O)C2F)c1 (stereo not drawn) [Compound 11, P^1-(Adenosine)-P^3-(2′-deoxy-2′-fluoro-β-nicotinamide arabinofuranoside) triphosphate] | 1.15 | – | –
